The record followed here is ChEMBL document CHEMBL1154171 (J Med Chem, 2009).

Data set [1] addresses Insulin-like growth factor 1 receptor (Homo sapiens, UniProt P08069). Briefly: Inhibition of IGF1R after 60 mins by fluorescence electrophoresis.
Data set [2] deals with Cyclin-dependent kinase 2/cyclin E (Homo sapiens, UniProt P24941). Description: Inhibition of CDK2/Cyclin E after 60 mins by fluorescence electrophoresis. In kind it is protein-complex assay.
The nature of data set [3]: Antitumor activity against mouse Sal cells xenografted in BALB/c mouse assessed as tumor growth inhibition at 6 to 25 mg/kg, po BID administered 8 hrs apart measured within 5 days. To be noted: dose mg/kg 6-25. In kind it is functional.
The test system of data set [4] is Mus musculus. Description: Toxicity in BALB/c mouse xenografted with mouse Sal cells assessed as change in body weight at 25 mg/kg, po BID administered 8 hrs apart measured within 5 days relative to control. To be noted: in vivo. In kind it is organism-based. Also noted: dose 25 mg/kg, route oral.
Data set [5] is described as follows: Antitumor activity against mouse Sal cells xenografted in po dosed BALB/c mouse assessed as minimum effective dose required for complete tumor growth inhibition administered BID 8 hrs apart measured within 5 days. In kind it is functional. Conditions: read-out: MED.
Another data set is described as follows: cells. Conditions: Mus musculus, Sal.
Data set [6] has as its target Macrophage-stimulating protein receptor (Homo sapiens) (UniProt Q04912). Briefly: Inhibition of Ron.
For a further data set, the target named is Cytochrome P450 2D6 (Homo sapiens, UniProt P10635). Briefly: Inhibition of CYP2D6. In kind it is ADME.
Data set [7] has as its target RAC-alpha serine/threonine-protein kinase (Mus musculus, UniProt P31750). Briefly: Inhibition of Akt phosphorylation in mouse Sal cells by Western blotting. In kind it is cell-based. (A western blot detects proteins with antibodies after separation by electrophoresis.)
Data set [8] is described as follows: Antitumor activity against mouse Sal cells xenografted in BALB/c mouse assessed as tumor growth inhibition at 6.25 mg/kg, po BID for 4 days measured 2 hrs after final dose on day 5. In kind it is functional. To be noted: read-out: TGI.
Data set [9] concerns Mus musculus. Description: Inhibition of Akt phosphorylation in po dosed BALB/c mouse xenografted with mouse Sal cells at 3.125 to 12.5 mg/kg, po BID for 4 days measured 2 hrs after final dose on day 5 by Western blot analysis. In kind it is functional, organism-based.
Data set [10] concerns the target Aurora kinase B (Homo sapiens) (UniProt Q96GD4). Briefly: Inhibition of Aurora B.
Data set [11] can be described thus: Bioavailability in iv dosed mouse. In kind it is ADME, organism-based. Conditions: in vivo.
Data set [12] can be described thus: Total clearance in iv dosed rat. In kind it is ADME, organism-based. Conditions: in vivo.
Data set [13] can be described thus: Permeability across human Caco-2 cells. To be noted: read-out: permeability. In kind it is ADME, cell-based.
The nature of data set [14]: In vivo antitumor activity against human Rh41 cells assessed as tumor growth inhibition at 12.5 mg/kg BID for 14 consecutive days measured on day 60 post tumor implantation. In kind it is functional. Conditions: Rh41, 1440 h, read-out: TGI.
Data set [15] is described as follows: Plasma protein binding in mouse. In kind it is ADME, cell-free. Conditions: read-out: PPB (converted).
Data set [16] in a line: Total clearance in iv dosed mouse. In kind it is ADME, organism-based. Conditions: in vivo.
In data set [17] the test system is Mus musculus. Briefly: Toxicity in BALB/c mouse xenografted with mouse Sal cells assessed as body weight loss at 25 mg/kg, po BID administered 8 hrs apart for 4 consecutive days measured within 5 days. In kind it is organism-based. Also on record: dose 25 mg/kg, route oral. Conditions: in vivo.
The nature of data set [18]: Total clearance in iv dosed dog. In kind it is ADME, organism-based, Canis lupus familiaris. To be noted: in vivo.
Another data set has as its target Cytochrome P450 2C19 (Homo sapiens, UniProt P33261). Briefly: Inhibition of CYP2C19. In kind it is ADME.
The nature of data set [19]: Bioavailability in iv dosed dog. In kind it is ADME, organism-based, Canis lupus familiaris. Conditions: in vivo.
For data set [20], the target named is Insulin receptor (Mus musculus) (UniProt P15208). Briefly: Inhibition of insulin receptor phosphorylation in mouse Sal cells at 0.003 to 1 uM by Western blotting. In kind it is cell-based.
The target of data set [21] is High affinity nerve growth factor receptor (Homo sapiens) (UniProt P04629). Description: Inhibition of TrkA.
The nature of data set [22]: Antitumor activity against mouse Sal cells xenografted in BALB/c mouse assessed as tumor growth inhibition at 3.125 mg/kg, po BID for 4 days measured 2 hrs after final dose on day 5. To be noted: read-out: TGI. In kind it is functional.
Data set [23] in a line: Permeability by PAMPA. In kind it is ADME. Conditions: read-out: permeability.
A further data set deals with Cytochrome P450 2C9 (Homo sapiens, UniProt P11712). Briefly: Inhibition of CYP2C9. In kind it is ADME.
A short description of data set [24]: Bioavailability in iv dosed monkey. In kind it is ADME, organism-based, Macaca mulatta. To be noted: rhesus monkey, in vivo.
For data set [25], the system named is Mus musculus. Briefly: Inhibition of IGF1R phosphorylation in po dosed BALB/c mouse xenografted with mouse Sal cells at 3.125 to 12.5 mg/kg, po BID for 4 days measured 2 hrs after final dose on day 5 by Western blot analysis. In kind it is functional, organism-based.
The nature of data set [26]: Antitumor activity against mouse Sal cells xenografted in BALB/c mouse assessed as tumor growth inhibition at 12.5 mg/kg, po BID for 4 days measured 2 hrs after final dose on day 5. In kind it is functional. To be noted: read-out: TGI.
Data set [27] deals with BDNF/NT-3 growth factors receptor (Homo sapiens) (UniProt Q16620). Description: Inhibition of TrkB.
Another data set concerns the target Cytochrome P450 1A2 (Homo sapiens, UniProt P05177). Briefly: Inhibition of CYP1A2. In kind it is ADME.
Data set [28] can be described thus: Total clearance in iv dosed monkey. Conditions: rhesus monkey, in vivo. In kind it is ADME, organism-based, Macaca mulatta.
Data set [29] can be described thus: Bioavailability in iv dosed rat. In kind it is ADME, organism-based. Conditions: in vivo.

Calls of active or inactive are those of the source. No cut-off for these calls is given here. A value given as a limit tells only on which side of the number the result lay.

Cytochrome P450 2D6, sequence (P10635 whole entry): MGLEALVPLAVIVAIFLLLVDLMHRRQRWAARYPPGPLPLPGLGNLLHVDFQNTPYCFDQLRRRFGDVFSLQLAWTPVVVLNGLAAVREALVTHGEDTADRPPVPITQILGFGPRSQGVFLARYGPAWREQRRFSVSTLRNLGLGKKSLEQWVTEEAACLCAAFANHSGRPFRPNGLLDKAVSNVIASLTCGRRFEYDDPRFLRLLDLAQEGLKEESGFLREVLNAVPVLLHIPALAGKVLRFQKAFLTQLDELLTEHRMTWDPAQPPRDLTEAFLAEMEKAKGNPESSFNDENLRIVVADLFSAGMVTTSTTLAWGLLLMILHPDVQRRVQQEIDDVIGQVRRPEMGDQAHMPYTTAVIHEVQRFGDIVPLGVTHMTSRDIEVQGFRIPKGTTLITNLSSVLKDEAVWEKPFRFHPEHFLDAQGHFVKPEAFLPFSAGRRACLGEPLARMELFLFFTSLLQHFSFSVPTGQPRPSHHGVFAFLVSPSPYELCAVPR
Aurora kinase B (Homo sapiens), sequence (Q96GD4 whole entry): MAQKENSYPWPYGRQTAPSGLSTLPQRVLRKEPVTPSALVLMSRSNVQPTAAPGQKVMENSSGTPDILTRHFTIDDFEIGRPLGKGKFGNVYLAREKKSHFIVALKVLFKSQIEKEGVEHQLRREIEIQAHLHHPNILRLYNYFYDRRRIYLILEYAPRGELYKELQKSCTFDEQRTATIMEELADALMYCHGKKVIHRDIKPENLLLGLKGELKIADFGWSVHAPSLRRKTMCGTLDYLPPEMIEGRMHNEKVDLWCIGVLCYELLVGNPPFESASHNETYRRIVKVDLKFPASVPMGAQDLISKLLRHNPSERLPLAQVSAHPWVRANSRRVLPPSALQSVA
Insulin receptor (Mus musculus), sequence (P15208 28-748 limits assumed): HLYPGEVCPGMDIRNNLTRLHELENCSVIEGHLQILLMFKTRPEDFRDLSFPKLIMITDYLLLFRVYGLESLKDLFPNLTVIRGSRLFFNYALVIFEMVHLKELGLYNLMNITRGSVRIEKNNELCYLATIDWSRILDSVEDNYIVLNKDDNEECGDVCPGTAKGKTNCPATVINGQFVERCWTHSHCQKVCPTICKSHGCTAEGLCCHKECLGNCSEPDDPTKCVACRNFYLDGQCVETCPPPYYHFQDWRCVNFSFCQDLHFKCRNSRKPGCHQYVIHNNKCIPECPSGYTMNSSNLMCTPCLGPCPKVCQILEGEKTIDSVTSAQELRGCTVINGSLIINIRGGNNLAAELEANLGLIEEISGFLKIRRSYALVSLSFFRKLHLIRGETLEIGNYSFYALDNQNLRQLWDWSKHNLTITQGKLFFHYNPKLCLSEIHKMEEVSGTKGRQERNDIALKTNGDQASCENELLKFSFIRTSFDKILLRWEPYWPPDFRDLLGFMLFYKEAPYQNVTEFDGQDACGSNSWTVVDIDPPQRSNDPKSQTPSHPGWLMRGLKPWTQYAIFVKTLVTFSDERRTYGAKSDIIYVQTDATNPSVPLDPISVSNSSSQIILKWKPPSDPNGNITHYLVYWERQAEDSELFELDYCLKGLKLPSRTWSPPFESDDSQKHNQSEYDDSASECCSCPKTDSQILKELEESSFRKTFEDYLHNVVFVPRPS
Insulin receptor (Mus musculus), sequence (P15208 753-1372 limits assumed): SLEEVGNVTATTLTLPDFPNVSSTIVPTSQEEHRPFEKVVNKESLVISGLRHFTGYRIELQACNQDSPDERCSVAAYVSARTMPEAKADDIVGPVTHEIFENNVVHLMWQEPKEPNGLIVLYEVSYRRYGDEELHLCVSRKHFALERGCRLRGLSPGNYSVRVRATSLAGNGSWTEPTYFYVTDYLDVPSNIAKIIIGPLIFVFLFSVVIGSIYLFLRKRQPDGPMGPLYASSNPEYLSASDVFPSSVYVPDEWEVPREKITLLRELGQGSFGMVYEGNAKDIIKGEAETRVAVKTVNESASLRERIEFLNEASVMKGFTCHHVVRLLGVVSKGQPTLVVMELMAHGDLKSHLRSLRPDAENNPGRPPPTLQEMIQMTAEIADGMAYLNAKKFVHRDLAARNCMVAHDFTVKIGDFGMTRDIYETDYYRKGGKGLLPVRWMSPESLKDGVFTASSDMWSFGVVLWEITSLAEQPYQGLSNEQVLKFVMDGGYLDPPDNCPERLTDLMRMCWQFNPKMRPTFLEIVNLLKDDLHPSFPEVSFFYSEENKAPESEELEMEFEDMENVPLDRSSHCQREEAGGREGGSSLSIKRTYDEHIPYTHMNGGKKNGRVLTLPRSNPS
Insulin-like growth factor 1 receptor, sequence (P08069 31-736 limits assumed): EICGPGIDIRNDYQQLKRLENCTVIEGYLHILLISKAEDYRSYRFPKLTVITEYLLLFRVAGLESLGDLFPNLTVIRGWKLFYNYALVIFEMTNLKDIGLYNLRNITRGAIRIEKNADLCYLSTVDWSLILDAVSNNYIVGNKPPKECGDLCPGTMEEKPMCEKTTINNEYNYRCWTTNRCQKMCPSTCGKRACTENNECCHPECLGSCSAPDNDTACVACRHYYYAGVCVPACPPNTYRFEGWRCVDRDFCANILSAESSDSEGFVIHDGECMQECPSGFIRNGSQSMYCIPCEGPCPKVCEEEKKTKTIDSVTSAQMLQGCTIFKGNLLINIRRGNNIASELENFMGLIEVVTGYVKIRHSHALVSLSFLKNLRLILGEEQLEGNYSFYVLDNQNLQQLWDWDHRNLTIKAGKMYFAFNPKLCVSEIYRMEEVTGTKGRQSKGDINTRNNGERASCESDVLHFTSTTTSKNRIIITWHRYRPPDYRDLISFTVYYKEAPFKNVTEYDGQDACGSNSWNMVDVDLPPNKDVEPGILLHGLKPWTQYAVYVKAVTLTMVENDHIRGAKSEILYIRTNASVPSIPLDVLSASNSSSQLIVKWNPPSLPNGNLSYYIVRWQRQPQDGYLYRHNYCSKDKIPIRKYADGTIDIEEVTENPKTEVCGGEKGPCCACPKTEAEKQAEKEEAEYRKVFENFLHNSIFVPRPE
Insulin-like growth factor 1 receptor, sequence (P08069 741-1367 limits assumed): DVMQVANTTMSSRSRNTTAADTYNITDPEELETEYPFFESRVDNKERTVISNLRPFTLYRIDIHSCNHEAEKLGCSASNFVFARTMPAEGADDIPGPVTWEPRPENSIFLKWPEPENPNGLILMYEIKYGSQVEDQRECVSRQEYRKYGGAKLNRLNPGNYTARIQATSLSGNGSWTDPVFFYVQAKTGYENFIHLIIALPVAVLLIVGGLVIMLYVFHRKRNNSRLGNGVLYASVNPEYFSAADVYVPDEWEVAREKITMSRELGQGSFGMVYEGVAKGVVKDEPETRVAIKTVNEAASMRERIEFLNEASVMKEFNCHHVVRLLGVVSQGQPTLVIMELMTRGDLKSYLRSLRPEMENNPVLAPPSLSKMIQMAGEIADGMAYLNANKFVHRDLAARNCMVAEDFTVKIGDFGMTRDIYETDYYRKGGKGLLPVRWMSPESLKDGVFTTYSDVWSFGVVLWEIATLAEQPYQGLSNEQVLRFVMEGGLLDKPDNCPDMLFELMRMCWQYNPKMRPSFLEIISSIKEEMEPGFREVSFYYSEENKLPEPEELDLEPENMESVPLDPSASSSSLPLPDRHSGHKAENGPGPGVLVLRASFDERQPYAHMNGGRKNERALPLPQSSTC
Cytochrome P450 2C19, sequence (P33261 whole entry): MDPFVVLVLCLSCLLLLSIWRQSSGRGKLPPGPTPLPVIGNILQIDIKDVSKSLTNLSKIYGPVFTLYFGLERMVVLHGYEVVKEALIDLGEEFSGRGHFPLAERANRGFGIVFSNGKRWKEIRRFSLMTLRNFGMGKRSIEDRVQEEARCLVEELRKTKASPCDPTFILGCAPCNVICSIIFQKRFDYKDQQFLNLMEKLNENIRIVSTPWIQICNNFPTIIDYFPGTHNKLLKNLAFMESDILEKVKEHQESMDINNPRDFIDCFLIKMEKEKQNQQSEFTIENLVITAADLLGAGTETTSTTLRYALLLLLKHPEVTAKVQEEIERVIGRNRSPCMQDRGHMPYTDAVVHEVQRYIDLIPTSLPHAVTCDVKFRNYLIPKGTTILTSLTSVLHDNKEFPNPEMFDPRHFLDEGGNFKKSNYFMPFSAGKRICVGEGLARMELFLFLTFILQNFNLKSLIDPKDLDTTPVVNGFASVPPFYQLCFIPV
High affinity nerve growth factor receptor (Homo sapiens), sequence (P04629 33-796 limits assumed): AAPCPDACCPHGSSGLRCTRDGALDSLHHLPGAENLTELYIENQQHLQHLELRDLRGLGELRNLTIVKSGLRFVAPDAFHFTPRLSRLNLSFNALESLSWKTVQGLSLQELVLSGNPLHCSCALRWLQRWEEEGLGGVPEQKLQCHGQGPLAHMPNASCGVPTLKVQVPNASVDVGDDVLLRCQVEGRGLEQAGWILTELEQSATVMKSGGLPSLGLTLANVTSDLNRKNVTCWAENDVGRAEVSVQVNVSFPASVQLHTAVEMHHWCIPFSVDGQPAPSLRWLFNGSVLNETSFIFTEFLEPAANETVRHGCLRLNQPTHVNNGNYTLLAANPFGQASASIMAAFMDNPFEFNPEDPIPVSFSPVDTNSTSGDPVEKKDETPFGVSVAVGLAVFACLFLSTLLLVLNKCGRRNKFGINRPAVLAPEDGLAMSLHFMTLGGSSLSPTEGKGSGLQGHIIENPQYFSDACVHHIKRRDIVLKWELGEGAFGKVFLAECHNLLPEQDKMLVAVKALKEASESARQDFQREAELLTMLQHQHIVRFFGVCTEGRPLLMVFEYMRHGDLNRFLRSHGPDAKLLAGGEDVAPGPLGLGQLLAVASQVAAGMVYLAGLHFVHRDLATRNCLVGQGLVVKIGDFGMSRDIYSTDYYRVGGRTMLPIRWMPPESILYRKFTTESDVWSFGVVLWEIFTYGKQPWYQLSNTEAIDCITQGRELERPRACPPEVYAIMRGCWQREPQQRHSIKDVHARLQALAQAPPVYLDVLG

For orientation: IC50 means the concentration needed to halve the response being measured. `C[C@@]1(C(=O)Nc2cccnc2)CCCN1c1nc(Nc2cc(C3CC3)[nH]n2)c2cccn2n1`: the IC50 in data set [1] was 6 nM; in [2] it was 1430 nM; in “cells”, 24 nM. In addition, the TGI in data set [3] is 76%. Besides, in the data set with Mus musculus [4], the Activity was 1.9 g. Also, the minimal effective dose in [5] was determined as 25 mg/kg.
On to `O=C(Nc1cccnc1)[C@@H]1CCCN1c1nc(Nc2cc(C3CC3)[nH]n2)c2cccn2n1`, for which the results for the IC50 (in data set [2]; in the data set “cells”) were 577 nM and 39 nM, respectively.
Compound `CN(C(=O)[C@@H]1CCCN1c1nc(Nc2cc(C3CC3)[nH]n2)c2cccn2n1)c1ccccc1` returned an IC50 in [2] of 200 nM.
`C[C@@]1(C(=O)Nc2cnccn2)CCCN1c1nc(Nc2cc(C3CC3)[nH]n2)c2cccn2n1`: the TGI in data set [3] came out at 113%. The Activity in the data set with Mus musculus [4] is -3.6 g. Besides, the minimal effective dose in [5] came out at 6.25 mg/kg.
`Cc1ccc(NC(=O)[C@@H]2CCCN2c2nc(Nc3cc(C4CC4)[nH]n3)c3cccn3n2)cc1`: the IC50 in data set [2] worked out at 1420 nM; in “cells”, 426 nM.
For `O=C(Nc1ccccc1)[C@@H]1CCCN1c1nc(Nc2cc(C3CC3)[nH]n2)c2cccn2n1`, the IC50 is 322 nM in [2] and 133 nM in the data set “cells”.
Taken in the same sequence, the figures for `NC(=O)[C@@H]1CCCN1c1nc(Nc2cc(C3CC3)[nH]n2)c2cccn2n1` were 2 nM and 47 nM.
For `NC(=O)[C@H]1CCCN1c1nc(Nc2cc(C3CC3)[nH]n2)c2cccn2n1` the same measures were 24 nM and 310 nM.
Take `C[C@@]1(C(=O)Nc2nccs2)CCCN1c1nc(Nc2cc(C3CC3)n[nH]2)c2cccn2n1`: the TGI in [3] is listed as 74%. In addition, the Activity in the data set on Mus musculus [4] is 0.3 g. The minimal effective dose in [5] was 12.5 mg/kg.
Consider `O=C(Nc1nccs1)[C@@H]1CCCN1c1nc(Nc2cc(C3CC3)[nH]n2)c2cccn2n1`, for which the IC50 in data set [2] is 40 nM; in the data set “cells” it was 69 nM.
As usually defined, the bioavailability is dose-corrected exposure relative to a reference, in per cent. As usually defined, the clearance is the volume of plasma or blood freed of the substance per unit of time. For `C[C@@]1(C(=O)Nc2ccc(F)nc2)CCCN1c1nc(Nc2cc(C3CC3)n[nH]2)c2cccn2n1` [BMS-754807], the inhibition result (in data set [6]; in the data set on Mus musculus [9]; in data set [10]; in data set [21]; with Mus musculus [25]; in data set [27]) was “Active” in each case. Moreover, the IC50 on Cytochrome P450 2D6 was above 40000 nM; in data set [7] it was 22 nM; against Cytochrome P450 2C19 it was 11000 nM; at Cytochrome P450 2C9, 23000 nM; against Cytochrome P450 1A2, above 40000 nM. Besides, in data set [8], the inhibition in vivo at 6.25 mg/kg was 107%. Moreover, the bioavailability was 6% in [11], 59% in data set [19], 8% in data set [24] and 30% in [29]. For the same compound, the clearance came out at 20 mL/min/kg in data set [12], 113 mL/min/kg in data set [16], 3.5 mL/min/kg in [18] and 41 mL/min/kg in data set [28]. In addition, the Papp was determined as 14.1 ×10⁻⁶ cm/s in data set [13] and 38.7 ×10⁻⁶ cm/s in data set [23]. In addition, the inhibition in vivo at 12.5 mg/kg in data set [14] worked out at 115%; in data set [26], 110%. Besides, the fraction unbound in [15] is 0.015. Moreover, the TGI in data set [3] is 102%. Further, the Activity in the data set with Mus musculus [4] is 0.2 g; in the data set with Mus musculus [17] it was above 10%. In [5], the minimal effective dose amounted to 6.25 mg/kg. The result in data set [20] was Active. In addition, the inhibition in vivo at 3.125 mg/kg in [22] was 80%.
